Source: ChEMBL document CHEMBL4477259, “Discovery and structure-activity relationships of a novel isothiazolone class of bacterial type II topoisomerase inhibitors” (Bioorg Med Chem Lett, 2016)
In brackets after ≈: the same amount, converted by molar mass.

What was measured:
[1] = tested on: Acinetobacter baumannii; assay: Antibacterial activity against Acinetobacter baumannii NCTC 13420; assay type: functional
[2] = tested on: Klebsiella pneumoniae; assay: Antibacterial activity against Klebsiella pneumoniae ATCC 700603; assay type: functional
[3] = tested on: Pseudomonas aeruginosa; assay: Antibacterial activity against Pseudomonas aeruginosa ATCC 27853; assay type: functional
[4] = tested on: Staphylococcus aureus; assay: Antibacterial activity against Staphylococcus aureus ATCC 29213; assay type: functional
[5] = tested on: Escherichia coli; assay: Antibacterial activity against Escherichia coli W4573; assay type: functional
[6] = tested on: Escherichia coli; assay: Antibacterial activity against Escherichia coli N43; assay type: functional
[7] = tested on: Escherichia coli; assay: Antibacterial activity against wild type Escherichia coli LM179; assay type: functional
[8] = tested on: Escherichia coli; assay: Antibacterial activity against Escherichia coli LM625 harboring GyrA S83L/D87N double mutant; assay type: functional
[9] = tested on: Escherichia coli; assay: Antibacterial activity against Escherichia coli LM367 harboring delta marR/delta acrR double mutant; assay type: functional
[10] = tested on: Escherichia coli; assay: Antibacterial activity against Escherichia coli LM693 harboring GyrA S83L/D87N double mutant/ParC S80I mutant; assay type: functional
[11] = tested on: Escherichia coli; assay: Antibacterial activity against Escherichia coli LM705 harboring GyrA S83L/D87N double mutant/ParC S80I mutant/delta marR/delta acrR double mutant; assay type: functional
[12] = tested on: Escherichia coli; assay: Antibacterial activity against Escherichia coli CH440 harboring GyrA S83L/D87N double mutant/ParC S80I E84V double mutant/aac(6')-lb-cr; assay type: functional
[13] = tested on: Escherichia coli; assay: Antibacterial activity against Escherichia coli CH460 harboring GyrA S83L/D87N double mutant/ParC S80I E84V double mutant/qepA; assay type: functional
[14] = tested on: Escherichia coli; assay: Antibacterial activity against Escherichia coli CH418 harboring GyrA S83L/D87N double mutant/ParC S80I E84G double mutant/qnrA; assay type: functional
[15] = tested on: Escherichia coli; assay: Antibacterial activity against Escherichia coli CH448 harboring GyrA S83L mutant/qnrS; assay type: functional
[16] = tested on: Escherichia coli; assay: Selectivity ratio of MIC for Escherichia coli LM625 harboring GyrA S83L/D87N double mutant to MIC for wild type Escherichia coli LM179; assay type: functional
[17] = tested on: Escherichia coli; assay: Selectivity ratio of MIC for Escherichia coli LM367 harboring delta marR/delta acrR double mutant to MIC for wild type Escherichia coli LM179; assay type: functional
[18] = tested on: Escherichia coli; assay: Selectivity ratio of MIC for Escherichia coli LM693 harboring GyrA S83L/D87N double mutant/ParC S80I mutant to MIC for wild type Escherichia coli LM179; assay type: functional
[19] = tested on: Escherichia coli; assay: Selectivity ratio of MIC for Escherichia coli LM705 harboring GyrA S83L/D87N double mutant/ParC S80I mutant/delta marR/delta acrR double mutant to MIC for wild type Escherichia coli LM179; assay type: functional
[20] = tested on: Escherichia coli; assay: Selectivity ratio of MIC for Escherichia coli CH440 harboring GyrA S83L/D87N double mutant/ParC S80I E84V double mutant/aac(6')-lb-cr to MIC for wild type Escherichia coli LM179; assay type: functional
[21] = tested on: Escherichia coli; assay: Selectivity ratio of MIC for Escherichia coli CH460 harboring GyrA S83L/D87N double mutant/ParC S80I E84V double mutant/qepA to MIC for wild type Escherichia coli LM179; assay type: functional
[22] = tested on: Escherichia coli; assay: Selectivity ratio of MIC for Escherichia coli CH418 harboring GyrA S83L/D87N double mutant/ParC S80I E84G double mutant/qnrA to MIC for wild type Escherichia coli LM179; assay type: functional
[23] = tested on: Escherichia coli; assay: Selectivity ratio of MIC for Escherichia coli CH448 harboring GyrA S83L mutant/qnrS to MIC for wild type Escherichia coli LM179; assay type: functional
[24] = tested on: HepG2; assay: Cytotoxicity against human HepG2 cells after 24 hrs by cell titre-glo assay; assay type: cell-based; conditions: HepG2, 24 h
[25] = n-octanol/phosphate buffer partition coefficient, log D of compound at pH 7.4 by shake-flask assay; assay type: physicochemical
[26] = biological target: hERG (KCNH2) (Homo sapiens, UniProt Q12809); assay: Inhibition of human ERG channel at 100 uM by automated patch clamp assay
Sequence of hERG (KCNH2) (Q12809 whole entry): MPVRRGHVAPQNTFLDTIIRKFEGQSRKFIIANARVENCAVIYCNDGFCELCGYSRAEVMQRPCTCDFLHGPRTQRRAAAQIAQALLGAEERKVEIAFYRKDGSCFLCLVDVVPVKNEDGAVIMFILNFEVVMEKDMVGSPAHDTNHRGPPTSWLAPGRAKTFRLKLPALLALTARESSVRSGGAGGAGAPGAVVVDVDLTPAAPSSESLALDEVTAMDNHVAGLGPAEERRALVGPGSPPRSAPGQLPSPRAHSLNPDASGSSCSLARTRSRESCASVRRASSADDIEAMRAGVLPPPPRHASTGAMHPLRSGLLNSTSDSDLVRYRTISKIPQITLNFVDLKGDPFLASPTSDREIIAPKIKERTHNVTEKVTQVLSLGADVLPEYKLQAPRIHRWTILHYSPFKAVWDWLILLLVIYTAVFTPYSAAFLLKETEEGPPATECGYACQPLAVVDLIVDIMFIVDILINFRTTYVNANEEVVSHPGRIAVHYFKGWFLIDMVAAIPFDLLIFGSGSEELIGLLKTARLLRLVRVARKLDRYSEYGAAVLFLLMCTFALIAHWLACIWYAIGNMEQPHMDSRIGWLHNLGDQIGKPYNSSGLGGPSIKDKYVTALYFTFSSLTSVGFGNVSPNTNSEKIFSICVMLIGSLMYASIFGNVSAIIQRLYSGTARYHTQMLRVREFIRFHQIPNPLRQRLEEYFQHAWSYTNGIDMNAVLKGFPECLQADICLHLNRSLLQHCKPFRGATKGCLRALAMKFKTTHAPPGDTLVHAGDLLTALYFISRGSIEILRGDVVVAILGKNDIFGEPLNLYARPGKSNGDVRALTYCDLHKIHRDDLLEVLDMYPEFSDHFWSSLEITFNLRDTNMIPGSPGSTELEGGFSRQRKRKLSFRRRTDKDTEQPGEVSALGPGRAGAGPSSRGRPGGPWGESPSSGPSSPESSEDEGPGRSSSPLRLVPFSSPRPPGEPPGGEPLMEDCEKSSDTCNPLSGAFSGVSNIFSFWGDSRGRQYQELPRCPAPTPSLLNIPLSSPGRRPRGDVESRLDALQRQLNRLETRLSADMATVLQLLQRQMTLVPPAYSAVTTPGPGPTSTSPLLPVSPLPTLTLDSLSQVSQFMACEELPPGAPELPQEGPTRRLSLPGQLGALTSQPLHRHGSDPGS

| SMILES | MIC [1] [µg/mL] | MIC [2] [µg/mL] | MIC [3] [µg/mL] | MIC [4] [µg/mL] | MIC [5] [µg/mL] | MIC [6] [µg/mL] | also measured |
| --- | --- | --- | --- | --- | --- | --- | --- |
| CCc1c(-c2ccc(Cl)cc2)[nH]c(=O)c2c(=O)[nH]sc12 | 16 (≈ 52.2 µM) | 128 (≈ 417 µM) | > 128 | 8 (≈ 26.1 µM) | 16 (≈ 52.2 µM) | 0.25 (≈ 0.815 µM) | – |
| CCc1c(-c2ccc(N3CCC(N)C3)cc2)[nH]c(=O)c2c(=O)[nH]sc12 (stereo not drawn) | 64 (≈ 180 µM) | 4 (≈ 11.2 µM) | 0.06 (≈ 0.168 µM) | 0.12 (≈ 0.337 µM) | 0.002 (≈ 0.00561 µM) | ≤ 0.0001 | – |
| CCc1c(-c2ccc3c(cnn3C)c2)[nH]c(=O)c2c(=O)[nH]sc12 | 2 (≈ 6.13 µM) | 16 (≈ 49 µM) | 4 (≈ 12.3 µM) | 0.12 (≈ 0.368 µM) | 0.5 (≈ 1.53 µM) | 0.004 (≈ 0.0123 µM) | MIC [7]: 0.5 µg/mL (≈ 1.53 µM); MIC [8]: 8 µg/mL (≈ 24.5 µM); MIC [9]: 4 µg/mL (≈ 12.3 µM); MIC [10]: 16 µg/mL (≈ 49 µM); MIC [11]: > 64 µg/mL; MIC [12]: 16 µg/mL (≈ 49 µM); MIC [13]: 16 µg/mL (≈ 49 µM); MIC [14]: 16 µg/mL (≈ 49 µM); MIC [15]: 16 µg/mL (≈ 49 µM); Selectivity ratio [16]: 16; Selectivity ratio [17]: 8; Selectivity ratio [18]: 32; Selectivity ratio [19]: >128; Selectivity ratio [20]: 32; Selectivity ratio [21]: 32; Selectivity ratio [22]: 32; Selectivity ratio [23]: 32 |
| CCc1c(-c2ccc(N3CCC(NC)C3)cc2)[nH]c(=O)c2c(=O)[nH]sc12 (stereo not drawn) | 16 (≈ 43.2 µM) | 2 (≈ 5.4 µM) | 0.06 (≈ 0.162 µM) | 0.12 (≈ 0.324 µM) | 0.008 (≈ 0.0216 µM) | 0.001 (≈ 0.0027 µM) | IC50 [24]: > 128 µg/mL; logD [25]: 1.2; inhibition at 100 µM [26]: 34% |
| CCc1c(-c2ccc(N3CCC(F)(F)C3)cc2)[nH]c(=O)c2c(=O)[nH]sc12 | > 64 | > 64 | 4 (≈ 10.6 µM) | 0.12 (≈ 0.318 µM) | 0.5 (≈ 1.32 µM) | 0.12 (≈ 0.318 µM) | – |
| CCc1c(-c2ccc(N3CCC(N(C)C)CC3)cc2)[nH]c(=O)c2c(=O)[nH]sc12 | > 64 | > 64 | 64 (≈ 161 µM) | 16 (≈ 40.1 µM) | 16 (≈ 40.1 µM) | 0.5 (≈ 1.25 µM) | – |
| CCc1c(-c2ccc(N3CCC(NC)CC3)cc2)[nH]c(=O)c2c(=O)[nH]sc12 | > 64 | > 64 | 64 (≈ 166 µM) | 16 (≈ 41.6 µM) | 32 (≈ 83.2 µM) | 1 (≈ 2.6 µM) | – |

Second part, led by results:

| MIC [1] [µg/mL] | MIC [2] [µg/mL] | MIC [3] [µg/mL] | MIC [4] [µg/mL] | MIC [5] [µg/mL] | MIC [6] [µg/mL] | SMILES | also measured |
| --- | --- | --- | --- | --- | --- | --- | --- |
| 1 (≈ 2.6 µM) | 4 (≈ 10.4 µM) | 1 (≈ 2.6 µM) | 0.5 (≈ 1.3 µM) | 0.015 (≈ 0.039 µM) | 0.001 (≈ 0.0026 µM) | CCc1c(-c2ccc(N3CC[C@H](N(C)C)C3)cc2)[nH]c(=O)c2c(=O)[nH]sc12 | – |
| 64 (≈ 166 µM) | > 128 | > 128 | 32 (≈ 83.2 µM) | > 64 | 8 (≈ 20.8 µM) | CCc1c(-c2cccc(N3CCC(N(C)C)C3)c2)[nH]c(=O)c2c(=O)[nH]sc12 (stereo not drawn) | – |
| > 128 | > 128 | > 128 | 32 (≈ 86.4 µM) | – | – | CCc1c(-c2cccc(N3CCC(NC)C3)c2)[nH]c(=O)c2c(=O)[nH]sc12 (stereo not drawn) | – |
